Consider 2 substances from patent US9365851B2, “Spalt-like transcription factor 4 (SALL4) and uses thereof” (National University of Singapore, priority 2011, dated 2016).

Assay [1] deals with PTEN promoter region. Put plainly: ChIP-qPCR of H3 acetylation at the PTEN promoter in SNU-398 cells. The class given is cell-based, human. The settings on record: SNU-398, ChIP-qPCR. The text has this: FIGS. 9A-9E: The wild type peptide blocks SALL4 repression of PTEN. (9A) Flow cytometry analysis on SNU-398 cells treated with Pep-1 carrier peptide alone (top panel), wild type peptide alone (middle panel), or Pep-1 carrier+peptide (lower panel). […] (9B) Confocal images of the distribution of FITC-labeled peptide in SNU-398 cells treated as shown in (9A). (9C) The endogenous SALL4 interaction with HDAC is blocked by wild type (wt) but not scrambled (scr) peptide. SALL4 was immunoprecipitated from SNU-398 nuclear extracts (1×10^6 cells) pre-treated with wild type or scrambled peptides as indicated using an anti-SALL4 antibody. Immunoprecipitates were analyzed by Western blot using HDAC1 (top panel) or SALL4 (lower panel) antibodies. […] Equal amount of SALL4 protein was present in all samples. In Lane 4 (“10% input”), 10% of the amount of nuclear extract used in lanes 1-3 was subjected to Western blot analysis without immunoprecipitation. […] Enrichment with control IgG was set at 1.
Whether this peptide can reverse the repressive effect of SALL4 on its target genes was then tested. Pten was chosen as an example since it is one of genes implicated in SALL4-mediated leukemogenesis. In addition, it was previously reported that SALL4 and NuRD component HDAC2 shared the same binding site at a specific Pten promoter region identified by a ChIP assay. When SALL4 was overexpressed in 293T cells, an enrichment of SALL4 as well as HDAC2 but a decreased H3 acetylation at this binding site were observed, which was correlated with a decreased Pten mRNA expression. It is likely that SALL4 recruits the NuRD complex in repressing Pten expression. If this model of the role of wt peptide is correct, then it could compete with endogenous SALL4 in recruiting NuRD to the binding site on Pten promoter. […] SNU-398 cells were treated with Scr or wt peptide and then evaluated for the Pten mRNA expression, as well as the status of HDAC2 binding and H3 acetylation at the Pten promoter region.
Then tested was whether this peptide could reverse the repressive effect of SALL4 on its target genes. The focus was onPTEN, since it is implicated in SALL4-mediated leukemogenesis (Yang et al., Blood, 112:805-813 (2008); Lu et al., PLoS One, 4:e5577 (2009)). In addition, it was previously reported that SALL4 could specifically bind to the PTEN promoter region in a chromatin immunoprecipitation (ChIP) assay (Lu et al., PLoS One, 4:e5577 (2009)). […] To test this possibility, SNU-398 cells were treated with scrambled or wild type peptide and subsequently evaluated for PTEN expression and H3 acetylation at the SALL4 binding site at the PTEN promoter region. […]

The test system of assay [2] is HuH-7 cells. Put plainly: Cell viability assay (MTT/MTS). The settings on record: HuH-7, 72 h. The assay is classed as cell-based, human. The protocol:
Cell viability assay (MTT) (Invitrogen) was performed according to the manufacturer's instructions. Briefly—10000 cells were seeded in 100 ul medium in 96 well plates. The next day cells were treated as indicated on the figures. At the designated time after the treatment 20 ul of 5 mg/ml MTT solution was added to each well. After 3.5 h incubation at 37 C the medium was removed and the reaction was terminated with a solution of 4 mM HCl, 0.1% Nondet P-40 (NP40) all in isopropanol in dark on orbital shaker for […]. at room temperature. The absorbance was read at 590 nm with a reference filter of 620 nm in Spectromax M3 (ABI) spectrophotometer.
Multiple leukemic and solid tumor cancer cell lines with high or low/no SALL4 expression (FIG. 10A) were chosen to test the biological effect(s) of the wild type peptide. Wild type or scrambled peptide was delivered into tumor cells at various concentrations, and their effects on cells were evaluated 72 hours post-treatment by the MTS cell viability assay. […] The effect of wild type peptide is SALL4-specific, as it had no effect on KBM5, an AML cell line with undetectable endogenous SALL4 expression. We were surprised to see that the wild type peptide had no effect on a high SALL4-expressing endometrioid cancer cell line, AN3CA. This prompted checking whether PTEN, a gene repressed by SALL4 through its interaction with NuRD 27, was present in this cell line. According to the model herein, the function of wild type peptide requires both the expression of SALL4 and intact SALL4 downstream target genes, such as PTEN. In tumor cells with PTEN deletion, even though wild type peptide could compete with endogenous SALL4 in interacting with the HDAC complex, an anti-proliferative effect might not be observed. Therefore, expression of PTEN was evaluated in AN3CA cells along with other cell lines. […]
7000 cells were seeded in each wells of a microtiter plate in 100 μL of complete medium. […] After four hours incubation of the tetrazolium salt, absorbance at 490 nm was read by a microplate reader.

Consider “Scr peptide: same 12 amino acids as the wt peptide, but in a scrambled sequence; negative control (SRMRQKIHPKIQ) [reference compound]”, for which the “H3 acetylation at the PTEN promoter region” value in assay [1] is given as “not observed”. Also, the cell viability entry in assay [2] was “remained unaffected”.

For the substance “H-MSRRKQAKPQHI-OH [wt peptide, MSRRKQAKPQHI]”, the figures for the “H3 acetylation at the PTEN promoter region” value in assay [1] (listed as Wild type peptide), in assay [1] (listed as Wt) and in assay [1] (listed as wild type peptide) were “increased H3 acetylation”, “increased H3 acetylation” and “increased H3 acetylation markers”, respectively. In addition, the cell viability result in assay [2] was “reduced the cell viability”; in assay [2] (listed as wild type peptide) it was “decreased cell viability”.
